The record followed here is patent EP0367747A2, “Dideoxy-L-arabinitol derivatives as antiviral compounds” (G.D. Searle & Co., priority 1988, dated 1990).

Marks after values point to notes of the source that are not given here. Where only a bound is given, the exact number is not on record here.

For orientation: inhibition means the relative decrease from the control value, in per cent.

Data set [1] concerns Sheep choroid plexus(SCP) cells. The experiment in a line: Toxicity of compounds in control wells without virus, graded morphologically 0 to 4. Details: key: 0 = no toxicity; 4 = total cell lyses. Format: cell-based. As to conditions: 0 to 4 scale. The procedure: (§1) SCP cells were cultured in 6-well plates to confluence. Wells were washed two times with serum free Minimal Essential Medium (MEM) to remove FBS. 0.2ml of virus was added per well in MEM supplemented with 4mM glutamine and gentamycin. After 1 hour adsorption, the virus was aspirated from each well. The appropriate concentration of each compound in 5 ml of Medium 199 (M-199) supplemented with 2% lamb serum, 4mM glutamine, 0.5% agarose and gentamycin was added to each well. Cultures were incubated at 37°C in a humidified 5% CO₂ incubator for 3-4 weeks. To terminate the test: cultures were fixed in 10% formalin, the agar removed, the monolayers stained with 1% crystal violet and plaques counted. Each compound concentration was run in triplicate. […] 0 is no toxicity observed while 4 is total lysing of the cell monolayer.
Control wells without virus were completed to determine the toxicity of compounds.

For another data set, the target named is T1, Yeast alpha-glucosidase (Saccharomyces cerevisiae, UniProt P53341).
T1 construct: purchased Sigma
The experiment in a line: Alpha-glucosidase inhibition assay, pH 7.4 (p-nitrophenol release). Type of data set: biochemical. As to conditions: for inhibition at 1000 µM: at 1.0 mM; for IC50: Table 3, pH 7.4, read-out: α-glucosidase IC₅₀. The procedure:
(§2) Yeast alpha-glucosidase and almond beta-glucosidase activities were measured by a modification of the method of Evans, et al., Phytochemistry 22, 768-770 (1983). The modifications included 1) assay of activities at pH 7.4 in HEPES (N-2-hydroxyethylpiperazine-N′-2-ethanesulfonic acid) buffer, 2) measurement in 96 well microtiter plates and 3) inclusion of 10% DMSO in control and test samples. The release of p-nitrophenol from the substrate p-nitrophenylglycoside was measured spectrophotometrically in the presence and absence of test compound. Each assay included a known inhibitor of the enzyme as a standard. IC₅₀ values were determined for compounds which inhibited the enzymes more than 50% at a 1 millimolar concentration. To 100 µl 50 mM HEPES buffer, pH 7.4, in a microtiter plate, add 20 µl test compound in DMSO (DMSO alone in control), 40 µl (0.013 units) yeast alpha-glucosidase (Sigma) in HEPES buffer and pre-incubate at room temperature for 15 minutes. […] Absorption change was measured at 15 to 25 minutes (reaction was linear for at least 30 minutes). Each sample was tested in triplicate. IC₅₀ values were determined from the linear portion of the log concentration vs % inhibition curve obtained from a minimum of 3 points. Deoxynojirimycin was used as standard inhibitor.

The test system of a further data set is visna virus. Kind of data set: Inhibition of visna virus in vitro (plaque reduction assay / 96 well plate assay) in SCP cells. Format: cell-based. Details: key to Antiviral Activity: A = active compound; I = inactive. As to conditions: for EC50: inhibition of visna virus, read-out: EC₅₀; for Antiviral Activity: Table 4. The procedure: Various compounds as prepared above were tested for inhibition of visna virus in vitro in a plaque reduction assay as follows:
Sheep choroid plexus(SCP) cells were obtained from American Type Culture Collection (ATCC) catalogue number CRL 1700 and were routinely passaged in vitro in Dulbecco's Modified Eagles (DME) medium supplemented with 20% fetal bovine serum (FBS). SCP cells were passaged once per week at a 1:2 or 1:3 split ratio. Visna was titrated by plaque assay in six-well plates. Virus pools were stored at -70°C.
as §1
The 96 well plate assay was performed similarly to the plaque assay above with modifications. SCP cells were seeded at 1 x 10⁴ cells per well in 0.1 ml DME medium. When confluent, the wells were washed with serum free MEM and 25ul of virus added in M-199 supplemented with 2% lamb serum. After 1 hour, 75uL of medium containing test compound was added to each well containing virus. After 2-3 weeks incubation the cytopathic effect of the virus was determined by staining with a vital stain. Cell viability was measured by determining stain density using a 96 well plate reader.

Data set [2] deals with almond beta-glucosidase. The experiment in a line: Beta-glucosidase inhibition assay, pH 4.8 (p-nitrophenol release). As to conditions: for β-Glucosidase pH 4.8 % Inhibition: Table 5; for IC50: Table 3, at pH 4.8, read-out: β-glucosidase IC₅₀. Type of data set: biochemical. Here is the method: Yeast alpha-glucosidase and almond beta-glucosidase activities were measured by a modification of the method of Evans, et al., Phytochemistry 22, 768-770 (1983). The modifications included 1) assay of activities at pH 7.4 in HEPES (N-2-hydroxyethylpiperazine-N′-2-ethanesulfonic acid) buffer, 2) measurement in 96 well microtiter plates and 3) inclusion of 10% DMSO in control and test samples. The release of p-nitrophenol from the substrate p-nitrophenylglycoside was measured spectrophotometrically in the presence and absence of test compound. Each assay included a known inhibitor of the enzyme as a standard. IC₅₀ values were determined for compounds which inhibited the enzymes more than 50% at a 1 millimolar concentration. To 100 µl 50 mM sodium citrate buffer, pH 4.8, in a microtiter plate, add 15 µl test compound in DMSO (DMSO alone in control), 20 µl (.017 units) beta-glucosidase (Sigma) in citrate buffer and pre-incubate at room temperature for 15 minutes. Add 25 µl 2.50 mM p-nitrophenyl-beta-D-glucopyranside in citrate buffer, as substrate. Incubate at room temperature 20 minutes (reaction is linear for at least 30 minutes). Add 50 µl 0.4 M NaOH. Read absortion change at 405 nm in a Biotek EIA Autoreader. Each sample was tested in triplicate. IC₅₀ values were determined from the linear portion of the log concentration vs % inhibition curve obtained from a minimum of 3 points. Castanospermine was used as standard inhibitor.

Data set [3] relates to almond beta-glucosidase. Kind of data set: Beta-glucosidase inhibition assay, pH 7.4 (p-nitrophenol release). Format: biochemical. As to conditions: for β-Glucosidase pH 7.4 % Inhibition: Table 5; for IC50: Table 3, at pH 7.4, read-out: β-glucosidase IC₅₀. The procedure:
as §2, with “µl (0.136” for “µl (0.013”, “units) beta-glucosidase” for “units) yeast alpha-glucosidase”, “(reaction is” for “(reaction was”, “points. Castanospermine” for “points. Deoxynojirimycin”

The mark [4] stands for this setting: Table 5, read-out: α-Glucosidase % Inhibition.

T1 sequence (P53341 whole entry): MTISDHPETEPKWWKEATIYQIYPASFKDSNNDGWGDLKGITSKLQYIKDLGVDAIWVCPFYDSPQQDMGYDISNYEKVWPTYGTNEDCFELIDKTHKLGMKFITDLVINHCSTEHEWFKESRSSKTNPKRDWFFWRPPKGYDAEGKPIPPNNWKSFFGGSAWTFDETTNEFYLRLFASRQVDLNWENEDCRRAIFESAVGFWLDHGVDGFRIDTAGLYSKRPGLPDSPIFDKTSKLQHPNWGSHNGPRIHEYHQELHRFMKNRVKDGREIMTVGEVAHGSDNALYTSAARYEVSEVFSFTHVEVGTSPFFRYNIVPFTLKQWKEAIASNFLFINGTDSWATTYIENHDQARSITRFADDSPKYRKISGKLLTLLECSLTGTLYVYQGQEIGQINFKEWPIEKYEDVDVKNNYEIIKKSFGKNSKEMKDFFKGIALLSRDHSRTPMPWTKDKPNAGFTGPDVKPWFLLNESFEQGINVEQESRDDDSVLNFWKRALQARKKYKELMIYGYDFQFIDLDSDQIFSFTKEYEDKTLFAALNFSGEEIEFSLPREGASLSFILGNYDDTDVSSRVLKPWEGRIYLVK

For the molecule `CC(=O)OCCN1C[C@H](OC(C)=O)[C@@H](OC(C)=O)[C@@H]1COC(C)=O` [Example 3, 1,4-([2-Acetyloxyethyl]imino)-1,4-dideoxy-L-arabinitol, triacetate], the Toxicity in data set [1] (Concentration 0.001 mM), in data set [1] (Concentration 0.01 mM), in data set [1] (Concentration 0.1 mM) and in data set [1] (Concentration 1.0 mM) was 0 each time. The inhibition at 1000 µM was 15% at Yeast alpha-glucosidase (setting [4]) and 90% in the data set on visna virus (Visna-maedi virus, Concentration 1.0 mM). Besides, in the data set on visna virus (Visna-maedi virus, Concentration 0.001 mM), the inhibition at 1 µM was -46%. Further, the inhibition at 10 µM with visna virus (Visna-maedi virus, Concentration 0.01 mM) is -64%. In addition, the inhibition at 100 µM in the data set on visna virus (Visna-maedi virus, Concentration 0.1 mM) is 72%. Further, the “β-Glucosidase pH 4.8 % Inhibition” value in the data set with almond beta-glucosidase [2] (at 1.0 mM) is 12%. For the same molecule, the “β-Glucosidase pH 7.4 % Inhibition” value with almond beta-glucosidase [3] (at 1.0 mM) worked out at 5%.
Regarding `OC[C@H]1[C@H](O)[C@@H](O)CN1CCCc1ccccc1` [Example 16, 1,4-([3-Propylphenyl]imino)-1,4-dideoxy-L-arabinitol], the Toxicity is 0 in data set [1] (Table 4, 0.01 mM Concn.); 0 in data set [1] (Table 4, 0.1 mM Concn.); 3 in data set [1] (Table 4, 1.0 mM Concn.). Also, the IC50 was 13 µM on Yeast alpha-glucosidase, above 1000 µM on almond beta-glucosidase [2] and above 1000 µM at almond beta-glucosidase [3]. Besides, the “β-Glucosidase pH 4.8 % Inhibition” value with almond beta-glucosidase [2] (at 1.0 mM) is 34%. Also, the “β-Glucosidase pH 7.4 % Inhibition” value in the data set on almond beta-glucosidase [3] (at 1.0 mM) is listed as 31%.
Turning to `CN1CC(O)C(O)C1CO` [Example 18, 1,4-(Methylimino)-1,4-dideoxy-L-arabinitol], the values for the IC50 on Yeast alpha-glucosidase, at almond beta-glucosidase [2] and on almond beta-glucosidase [3] were 46 µM, 36 µM and 23 µM, respectively. In addition, in the data set on visna virus (Visna-maedi virus), the EC50 was found to be 100 µM.
For `CC(=O)OC[C@H]1[C@H](OC(C)=O)[C@@H](OC(C)=O)CN1C(=O)OCc1ccccc1` [Example 20, 1,4-(Benzyloxycarbonylimino)-1,4-dideoxy-L-arabinitol, triacetate], the Toxicity in data set [1] (Table 4, 0.1 mM Concn.) came out at 0; in data set [1] (Table 4, 1.0 mM Concn.), 0. For the same molecule, the inhibition at 1000 µM on Yeast alpha-glucosidase (setting [4]) is 18%. For the same molecule, in the data set with visna virus (Visna-maedi virus), the EC50 was 1000 µM. Besides, the “β-Glucosidase pH 4.8 % Inhibition” value in the data set on almond beta-glucosidase [2] (at 1.0 mM) is 5%. Further, the “β-Glucosidase pH 7.4 % Inhibition” value in the data set on almond beta-glucosidase [3] (at 1.0 mM) stood at 6%.
Regarding `CCCC(=O)OC[C@H]1[C@H](OC(=O)CCC)[C@@H](OC(=O)CCC)CN1C(=O)OCc1ccccc1` [Example 22, 1,4-(Benzyloxycarbonylimino)-1,4-dideoxy-L-arabinitol, tributyrate], the Toxicity in data set [1] (Table 4, 0.1 mM Concn.) is on record as 1; in data set [1] (Table 4, 1.0 mM Concn.) it was 2. Besides, on Yeast alpha-glucosidase (Table 5, at 10 µM (**), read-out: α-Glucosidase % Inhibition), the inhibition at 10 µM amounted to 30%. The “β-Glucosidase pH 4.8 % Inhibition” value in the data set with almond beta-glucosidase [2] (at 10 µM (**)) amounted to 11%**. The “β-Glucosidase pH 7.4 % Inhibition” value in the data set on almond beta-glucosidase [3] (at 10 µM (**)) stood at 2%**.
With `CCCCN1CC(OC(=O)CCC)C(OC(=O)CCC)C1COC(=O)CCC` [Example 26, 1,4-(Butylimino)-1,4-dideoxy-L-arabinitol, tributyrate], the Toxicity in data set [1] (Table 4, 0.1 mM Concn.) is 0; in data set [1] (Table 4, 1.0 mM Concn.) it was 2. Besides, the inhibition at 100 µM on Yeast alpha-glucosidase (setting [4]) was 20%. Besides, the EC50 in the data set on visna virus (Visna-maedi virus) was 1000 µM. Moreover, in the data set with almond beta-glucosidase [2] (at 100 µM (***)), the “β-Glucosidase pH 4.8 % Inhibition” value is 1%***. For the same molecule, the “β-Glucosidase pH 7.4 % Inhibition” value in the data set with almond beta-glucosidase [3] (at 100 µM (***)) was determined as 1%***.
Take `CC(=O)OC[C@H]1[C@H](OC(C)=O)[C@@H](OC(C)=O)CN1C(=O)Cc1ccccc1` [Example 28, 1,4-(Phenylacetylimino)-1,4-dideoxy-L-arabinitol, triacetate]: the Toxicity in data set [1] (Table 4, 0.01 mM Concn.) worked out at 0; in data set [1] (Table 4, 0.1 mM Concn.), 0; in data set [1] (Table 4, 1.0 mM Concn.), 1. Besides, the inhibition at 1000 µM on Yeast alpha-glucosidase (setting [4]) was 30%. The “Antiviral Activity” value in the data set on visna virus (0.01 mM Concn.), in the data set on visna virus (0.1 mM Concn.) and in the data set with visna virus (1.0 mM Concn.) was “A” throughout. Moreover, in the data set on visna virus (Visna-maedi virus), the EC50 worked out at 1000 µM. Moreover, the “β-Glucosidase pH 4.8 % Inhibition” value in the data set with almond beta-glucosidase [2] (at 1.0 mM) turned out to be 0%. In the data set with almond beta-glucosidase [3] (at 1.0 mM), the “β-Glucosidase pH 7.4 % Inhibition” value is given as 6%.
Consider `CCC(=O)OC[C@H]1[C@H](OC(=O)CC)[C@@H](OC(=O)CC)CN1C(=O)OCc1ccccc1` [Example 29, 1,4-(Benzyloxycarbonylimino)-1,4-dideoxy-L-arabinitol, tripropionate], for which the Toxicity in data set [1] (Table 4, 0.001 mM Concn.) came out at 0; in data set [1] (Table 4, 0.01 mM Concn.), 0; in data set [1] (Table 4, 0.1 mM Concn.) it was 0. Also, the inhibition at 100 µM at Yeast alpha-glucosidase (setting [4]) stood at 41%. Moreover, the “Antiviral Activity” value in the data set with visna virus (0.001 mM Concn.), with visna virus (0.01 mM Concn.) and in the data set on visna virus (0.1 mM Concn.) was “A” in each case. The “β-Glucosidase pH 4.8 % Inhibition” value in the data set with almond beta-glucosidase [2] (at 100 µM (***)) was 2%***. Besides, the “β-Glucosidase pH 7.4 % Inhibition” value with almond beta-glucosidase [3] (at 100 µM (***)) was determined as 5%***.
